# Laboratory results: US5968581A, “Dipeptide derivatives and sweetening agents” (Ajinomoto Co., Inc., priority 1997, dated 1999)
# Like-named read-outs stand apart in the source and are kept apart here. Residues, ends and D or L forms follow the SMILES beside them.
# How the values were obtained:
# [1] = Stability (half-life) in acidic aqueous solution, pH 3 phosphate buffer at 70° C.
# [2] = Sensory evaluation: degree of sweetness relative to sucrose; conditions: times that of 4% sucrose solution
# [3] = pH 3
"Stability (half-life, time corresponding to 50% degradation) [3]",Structure (SMILES),"Stability (half-life, time corresponding to 50% degradation) [1]","Stability (half-life, time corresponding to 50% degradation) ([1]; listed as N-3,3-dimethylbutyl-α-L-aspartyl-α-methyl-L-tyrosine methyl. ester)",Degree of sweetness (relative to sugar) [2],"Degree of sweetness (relative to sugar) ([2]; listed as N-3,3-dimethylbutyl-α-L-aspartyl-α-methyl-L-tyrosine methyl ester)"
–,"COC(=O)[C@](C)(Cc1ccc(O)cc1)NC(=O)[C@H](CC(=O)O)NCCC(C)(C)C [Example 2, N-3,3-dimethylbutyl-α-L-aspartyl-α-methyl-L-tyrosine methyl ester]",14.5 days,about 347 hours,700 times,about 700 times
about 24 hours,COC(=O)[C@H](Cc1ccccc1)NC(=O)[C@@H](N)CC(=O)O [aspartame] (H-Asp-Phe-OMe),–,–,–,–
